Assay results taken from patent publication US7547803B2, “Process for producing a high purity aromatic polycarboxylic acid” (Mitsubishi Gas Chemical Company, Inc., priority 2003, dated 2009).

Assay: solubility in water at 280° C.
Type: physicochemical

O=C(O)c1ccc2cc(C(=O)O)ccc2c1 [2,6-naphthalenedicarboxylic acid]
solubility of 2,6-naphthalenedicarboxylic acid in water: about 6 g in 100 g of water
